Experimental data: patent US9963467B2, “Boronic acid derivatives and therapeutic uses thereof” (Rempex Pharmaceuticals, Inc., priority 2014, dated 2018)
Read-outs that look alike come from different tables or passages of the source.

How the values were obtained:
P99 = P99 (Enterobacter cloacae, UniProt P05364); assay: Ki, nitrocefin cleavage by purified enzyme, P99; format: biochemical; details: nitrocefin reporter substrate; read-out: Ki (P99, NCF)
Procedure, shortened: (§1)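 10 min RT preincubation, enzyme with inhibitor series in reaction buffer. Substrate nitrocefin; kinetic read 490 nm, 10 sec intervals, 10 min total.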

EC1010 (CMY-6) [1] = assay: organism not typed; format: cell-based
KP1010 (SHV-12) [2] = assay: Aztreonam potentiation (MPC@4), KP1010; format: cell-based
ECL1002 [3] = assay: Tigemonam potentiation (MPC@4), ECL1002; format: cell-based; details: BLI with tigemonam at 4 μg/mL
KP1010 (SHV-12) [4] = assay: Tigemonam potentiation (MPC@4), KP1010; format: cell-based
KP1086 (OXA-48) = assay: Biapenem potentiation (MPC@1), KP1086; details: BLI with biapenem at 1 μg/mL
ec308 (SHV-5) [5] = assay: Aztreonam potentiation (MPC@4), ec308; format: cell-based; details: BLI with aztreonam at 4 μg/mL
ec308 (SHV-5) [6] = assay: Tigemonam potentiation (MPC@4), ec308; format: cell-based
KP1004 (KPC-2) = assay: Biapenem potentiation (MPC@1), KP1004; details: BLI with biapenem at 1 μg/mL
ECL1002 [7] = assay: Aztreonam potentiation (MPC@4), ECL1002; format: cell-based; details: BLI with aztreonam at 4 μg/mL
ec302 (TEM-10) [8] = assay: Tigemonam potentiation (MPC@4), ec302; format: cell-based
Pa AmpC = Pa AmpC (Pseudomonas aeruginosa, UniProt P24735); assay: Ki, nitrocefin cleavage by purified enzyme, Pa AmpC; format: biochemical; details: nitrocefin reporter substrate; read-out: Ki (Pa AmpC, NCF)
Sequence of Pa AmpC (P24735 27-397): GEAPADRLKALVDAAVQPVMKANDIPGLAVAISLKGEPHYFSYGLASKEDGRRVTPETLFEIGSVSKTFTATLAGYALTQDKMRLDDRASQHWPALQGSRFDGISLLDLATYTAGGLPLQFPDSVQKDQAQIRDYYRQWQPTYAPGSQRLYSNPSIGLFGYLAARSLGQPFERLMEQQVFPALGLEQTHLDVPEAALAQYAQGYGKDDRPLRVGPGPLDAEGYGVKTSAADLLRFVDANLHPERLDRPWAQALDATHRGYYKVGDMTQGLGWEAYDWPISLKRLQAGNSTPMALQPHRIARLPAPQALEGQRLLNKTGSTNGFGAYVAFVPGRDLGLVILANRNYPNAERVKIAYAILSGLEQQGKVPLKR
Procedure, shortened: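 Enzyme–inhibitor mixtures, spanning various inhibitor concentrations, were held 10 min at room temperature in reaction buffer prior to nitrocefin addition. Spectrophotometric monitoring of substrate cleavage at 490 nm then ran 10 min at 10-sec intervals to yield Ki.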

KP1005 (CTX-M-14) [9] = assay: Aztreonam potentiation (MPC@4), KP1005; format: cell-based; details: BLI with aztreonam at 4 μg/mL
KP1005 (CTX-M-14) [10] = assay: Tigemonam potentiation (MPC@4), KP1005; format: cell-based; details: BLI with tigemonam at 4 μg/mL
PAM1032/KPC-2 = assay: Biapenem potentiation MPC64, PAM1032/KPC-2 (efflux proficient); format: cell-based, Pseudomonas aeruginosa; details: BLI to decrease MIC of biapenem 64-fold; MexAB-OprM overexpressed
Experimental: Efflux of BLIs from Pseudomonas aeruginosa by the MexAB-OprM efflux pump was also evaluated. […] Due to expression of KPC-2 both strains became resistant to biapenem. […] Potency of BLIs to potentiate biapenem in these strains was determined. […] The ratio of MPC64 values for each BLI in PAM1032/KPC-2 (efflux proficient) and PAM1154/KPC-2 (efflux deficient) was determined to generate the Efflux Index (EI).

KP1009 (CTX-M-15) = assay: Tigemonam potentiation (MPC@4), KP1009; format: cell-based; details: BLI with tigemonam at 4 μg/mL
[11] = Intravenous pharmacokinetics; format: in vivo; details: rat, plasma; rats, 20 mg/kg, intravenous infusion over 0.5 hours; read-out: Free Cl (converted)
Experimental: Rats (n=3 per compound) were administered by a single infusion. Intravenous doses were infused over 0.5 hours via an indwelling femoral vein cannula. […] (˜0.3 mL) samples were collected from each rat at designated time points up to 24 hours. Blood samples were centrifuged within 5 min of collection at 12000 g for 5 min to obtain plasma. The plasma samples were stored at −80° C. until analyzed. Data were analyzed using WinNonlin. The doses of all compounds tested were 20 mg/kg.

CTX-M-14 = CTX-M-14 (Escherichia coli, UniProt Q9L5C7); assay: Ki, nitrocefin cleavage by purified enzyme, CTX-M-14; format: biochemical; details: nitrocefin reporter substrate; read-out: Ki (CTX-M-14, NCF)
Sequence of CTX-M-14 (Q9L5C7 29-291): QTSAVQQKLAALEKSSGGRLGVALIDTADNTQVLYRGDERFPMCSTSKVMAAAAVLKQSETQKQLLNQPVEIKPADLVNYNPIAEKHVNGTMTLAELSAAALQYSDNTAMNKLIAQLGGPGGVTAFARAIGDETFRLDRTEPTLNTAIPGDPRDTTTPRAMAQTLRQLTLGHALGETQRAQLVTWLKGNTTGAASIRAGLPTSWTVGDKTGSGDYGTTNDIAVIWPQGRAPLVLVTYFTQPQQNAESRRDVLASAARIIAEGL
Procedure, shortened: as §1

ec302 (TEM-10) [12] = assay: Aztreonam potentiation (MPC@4), ec302; format: cell-based; details: BLI with aztreonam at 4 μg/mL
OXA-48 = OXA-48 (Klebsiella pneumoniae, UniProt Q6XEC0); assay: Ki, nitrocefin cleavage by purified enzyme, OXA-48; format: biochemical; details: nitrocefin reporter substrate; read-out: Ki (OXA-48, NCF)
Sequence of OXA-48 (Q6XEC0 23-265, looked up, species assumed): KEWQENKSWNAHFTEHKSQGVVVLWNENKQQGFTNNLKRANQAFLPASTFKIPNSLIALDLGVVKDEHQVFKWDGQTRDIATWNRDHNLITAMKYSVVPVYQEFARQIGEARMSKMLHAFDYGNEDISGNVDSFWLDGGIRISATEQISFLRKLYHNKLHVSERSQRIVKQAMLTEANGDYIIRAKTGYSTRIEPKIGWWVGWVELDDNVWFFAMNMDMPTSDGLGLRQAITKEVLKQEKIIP
Procedure, shortened: as §1

EC1010 (CMY-6) [13] = assay: Tigemonam potentiation (MPC@4), EC1010; format: cell-based; details: BLI with tigemonam at 4 μg/mL
SHV-12 = SHV-12 (Klebsiella pneumoniae, UniProt P0AD64, E235K/G234S/L31Q); assay: Ki, nitrocefin cleavage by purified enzyme, SHV-12; format: biochemical; details: nitrocefin reporter substrate; read-out: Ki (SHV-12, NCF)
Sequence of SHV-12 (P0AD64 22-286 L31Q/G234S/E235K): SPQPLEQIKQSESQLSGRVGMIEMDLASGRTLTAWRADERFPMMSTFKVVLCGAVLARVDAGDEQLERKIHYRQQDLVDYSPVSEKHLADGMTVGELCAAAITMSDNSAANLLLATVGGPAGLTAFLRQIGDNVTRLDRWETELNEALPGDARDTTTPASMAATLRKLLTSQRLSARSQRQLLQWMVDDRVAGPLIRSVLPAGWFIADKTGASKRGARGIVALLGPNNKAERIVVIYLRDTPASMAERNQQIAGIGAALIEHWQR
Procedure, shortened: as §1

KPC-2 = KPC-2 (Klebsiella pneumoniae, UniProt Q9F663); assay: Ki, nitrocefin cleavage by purified enzyme, KPC-2; format: biochemical; details: nitrocefin reporter substrate; read-out: Ki (KPC-2, NCF)
Sequence of KPC-2 (Q9F663 25-293, looked up, species assumed): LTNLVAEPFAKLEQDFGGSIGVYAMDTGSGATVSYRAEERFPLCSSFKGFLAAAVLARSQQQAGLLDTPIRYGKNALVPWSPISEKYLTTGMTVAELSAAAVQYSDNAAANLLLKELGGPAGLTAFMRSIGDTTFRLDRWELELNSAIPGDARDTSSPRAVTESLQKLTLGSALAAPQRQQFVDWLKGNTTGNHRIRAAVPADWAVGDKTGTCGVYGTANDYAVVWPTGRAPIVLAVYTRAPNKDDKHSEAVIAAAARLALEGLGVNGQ
Procedure, shortened: as §1

[14] = Monomer content of pH adjusted aqueous solutions (LC-UV); format: physicochemical; details: pH adjusted to 7.6 to 8, LC-UV; for % Monomer in 1 mg/mL salt solution: 1 mg/mL aqueous salt solution; for % Monomer in 10 mg/mL salt solution: 10 mg/mL aqueous salt solution; for % Monomer in 100 mg/mL salt solution: 100 mg/mL aqueous salt solution
Procedure, shortened: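 Aqueous solutions at 1.00, 10.0 or 100 mg/mL (active fraction) brought to pH 7.6–8 with acid or base, compound fully dissolved. Injected within half an hour of preparation onto C18 reversed-phase LC (0.1% TFA water / 0.085% TFA methanol gradient); UV detection at 220, 254 and 300 nm.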

Sequence of P99 (P05364 21-381): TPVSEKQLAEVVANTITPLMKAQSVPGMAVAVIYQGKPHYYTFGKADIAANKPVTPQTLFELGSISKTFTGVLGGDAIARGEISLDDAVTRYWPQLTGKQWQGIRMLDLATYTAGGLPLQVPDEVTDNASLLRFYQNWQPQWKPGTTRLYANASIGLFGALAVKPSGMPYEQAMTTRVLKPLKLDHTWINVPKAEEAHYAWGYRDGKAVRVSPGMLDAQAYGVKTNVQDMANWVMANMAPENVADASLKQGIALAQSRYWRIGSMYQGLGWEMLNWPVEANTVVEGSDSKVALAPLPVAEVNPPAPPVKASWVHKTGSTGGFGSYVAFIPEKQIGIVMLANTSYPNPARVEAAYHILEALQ

| SMILES | Ki (P99) | AZT MPC4 CMY-6 EC1010 (EC1010 (CMY-6) [1]) | TIG MPC4 ECL1002 (ECL1002 [3]) | TIG MPC4 SHV-12 KP1010 (KP1010 (SHV-12) [4]) | BPM MPC1 OXA-48 KP1086 (KP1086 (OXA-48)) | TIG MPC4 SHV-5 ec308 (ec308 (SHV-5) [6]) | BPM MPC1 KP1004 KPC-2 (KP1004 (KPC-2)) | AZT MPC4 ECL1002 (ECL1002 [7]) | TIG MPC4 TEM-10 ec302 (ec302 (TEM-10) [8]) | Ki (Pa AmpC) | TIG MPC4 CTX-M-14 KP1005 (KP1005 (CTX-M-14) [10]) | TIG MPC4 CTX-M-15 KP1009 (KP1009 (CTX-M-15)) | clearance [11] | Ki (CTX-M-14) | AZT MPC4 TEM-10 ec302 (ec302 (TEM-10) [12]) | Ki (OXA-48) | TIG MPC4 CMY-6 EC1010 (EC1010 (CMY-6) [13]) | Ki (SHV-12) | Ki (KPC-2) | % Monomer in 1 mg/mL salt solution [14] | also measured |
| --- | --- | --- | --- | --- | --- | --- | --- | --- | --- | --- | --- | --- | --- | --- | --- | --- | --- | --- | --- | --- | --- |
| O=C(CSC(F)F)N[C@H]1Cc2cccc(C(=O)O)c2OB1O [C, reference compound] | 1 to 10 nM | X (key: X: MIC of less than 1 ng/mL; Y: MIC of 1 μg/mL to 10 μg/mL; Z: MIC of greater than 10 μg/mL) | Y (MIC of 1 μg/mL to 10 μg/mL) | X (key: X: MIC of less than 1 μg/mL; Y: MIC of 1 μg/mL to 10 μg/mL; Z: MIC of greater than 10 μg/mL) | Y (MIC of 1 μg/mL to 10 μg/mL) | X (key: X: MIC of less than 1 μg/mL; Y: MIC of 1 μg/mL to 10 μg/mL; Z: MIC of greater than 10 μg/mL) | X (MIC of less than 1 μg/mL) | Y (MIC of 1 μg/mL to 10 μg/mL) | Y (key: X: MIC of less than 1 ng/mL; Y: MIC of 1 μg/mL to 10 μg/mL; Z: MIC of greater than 10 μg/mL) | < 1 nM | X (MIC of less than 1 μg/mL) | X (MIC of less than 1 μg/mL) |  |  |  |  |  |  |  |  | AZT MPC4 SHV-12 KP1010 (KP1010 (SHV-12) [2]): X (key: X: MIC of less than 1 ng/mL; Y: MIC of 1 μg/mL to 10 μg/mL; Z: MIC of greater than 10 μg/mL); AZT MPC4 SHV-5 ec308 (ec308 (SHV-5) [5]): X (MIC of less than 1 ng/mL); AZT MPC4 CTX-M-14 KP1005 (KP1005 (CTX-M-14) [9]): X (MIC of less than 1 ng/mL); PAM1032/KPC-2 Biapenem MPC64 (PAM1032/KPC-2): 80 |
| O=C(Cc1cccs1)N[C@H]1Cc2ccc(F)c(C(=O)O)c2OB1O [Compound 30, (R)-7-fluoro-2-hydroxy-3-(2-(thiophen-2-yl)acetamido)-3,4-dihydro-2H-benzo[e][1,2]oxaborinine-8-carboxylic acid] | 1 to 10 nM | Y (key: X: MIC of less than 1 ng/mL; Y: MIC of 1 μg/mL to 10 μg/mL; Z: MIC of greater than 10 μg/mL) | X (MIC of less than 1 μg/mL) | X (key: X: MIC of less than 1 μg/mL; Y: MIC of 1 μg/mL to 10 μg/mL; Z: MIC of greater than 10 μg/mL) | Y (MIC of 1 μg/mL to 10 μg/mL) | X (key: X: MIC of less than 1 μg/mL; Y: MIC of 1 μg/mL to 10 μg/mL; Z: MIC of greater than 10 μg/mL) | X (MIC of less than 1 μg/mL) | Y (MIC of 1 μg/mL to 10 μg/mL) | Y (key: X: MIC of less than 1 ng/mL; Y: MIC of 1 μg/mL to 10 μg/mL; Z: MIC of greater than 10 μg/mL) | 1 to 10 nM | Y (MIC of 1 μg/mL to 10 μg/mL) | X (MIC of less than 1 μg/mL) | 23 mL/min/kg | < 1 nM | Y (MIC of 1 μg/mL to 10 μg/mL) | < 1 nM | X (MIC of less than 1 μg/mL) | < 1 nM | 1 to 10 nM | 94.6% | % Monomer in 10 mg/mL salt solution [14]: 93.5%; % Monomer in 100 mg/mL salt solution [14]: 87.6% |
| CSCC(=O)N[C@H]1Cc2ccc(F)c(C(=O)O)c2OB1O [Compound 1, (R)-7-fluoro-2-hydroxy-3-(2-(methylthio)acetamido)-3,4-dihydro-2H-benzo[e][1,2]oxaborinine-8-carboxylic acid] | > 10 nM |  | X (MIC of less than 1 μg/mL) |  | Y (MIC of 1 μg/mL to 10 μg/mL) |  | X (MIC of less than 1 μg/mL) | Y (MIC of 1 μg/mL to 10 μg/mL) |  |  | X (MIC of less than 1 μg/mL) | X (MIC of less than 1 μg/mL) | 14.2 mL/min/kg | < 1 nM | Y (MIC of 1 μg/mL to 10 μg/mL) | > 10 nM | X (MIC of less than 1 μg/mL) | < 1 nM | > 10 nM | 98.0% | TIG MPC4 SHV-12 KP1010 (KP1010 (SHV-12) [4]; BLI with tigemonam at 4 μg/mL): X (MIC of less than 1 μg/mL); TIG MPC4 SHV-5 ec308 (ec308 (SHV-5) [6]; BLI with tigemonam at 4 μg/mL): X (MIC of less than 1 μg/mL); TIG MPC4 TEM-10 ec302 (ec302 (TEM-10) [8]; BLI with tigemonam at 4 μg/mL): Y (MIC of 1 μg/mL to 10 μg/mL); % Monomer in 10 mg/mL salt solution [14]: 97.5%; % Monomer in 100 mg/mL salt solution [14]: 96.4% |
